These results are taken from patent US4237141A, “Derivatives of α-methyl-β-aminopropiophenone and use thereof” (priority 1977, dated 1980).

In data set [1] the test system is guinea-pig isolated tracheal smooth muscles. Kind of data set: Relaxant action on guinea-pig isolated tracheal chain contracted by histamine. The conditions noted are these: for pEC50: Cavia porcellus, contracted by 10^-4 M histamine, read-out: A: 50% effective amount for the guinea-pig isolated tracheal smooth muscles (50% relaxation); for B/A: selectivity to tracheal smooth muscles: based on reference B/A value 1 for isoproterenol, B from canine femoral artery. The source says:
(§1) Reference will now be made to pharmacological effects of the compounds according to the present invention.
(§2) (1) Relaxant action on the guinea-pig isolated tracheal smooth muscles and the vasodilating action on the canine anesthetized femoral arterial preparation were employed to compare the pharmacological effects of each of the compounds.

For data set [2], the system named is canine femoral arterial preparation. The data set is described as follows: Vasodilating action in the canine anesthetized femoral arterial preparation (close arterial injection). It is filed as in vivo.
Description: as §1, §2

The test system of data set [3] is canine blood-perfused tracheal preparation. The data set is described as follows: Canine blood-perfused tracheal preparation in situ: intraluminal pressure decrease and perfused-blood flow increase. It is filed as in vivo. To be noted: for D/C × 10: selectivity: based on reference D/C value 1 for isoproterenol; for C: dose required for 20 cm H2O decrease in the tracheal intraluminal pressure (bronchodilator action) / D: dose required for 5 ml/min increase in the perfused-blood flow (vasodilator action): canine blood-perfused tracheal preparation in situ. The method, then: as §1
The bronchodilator action was represented by a dose (C), μg, of a compound required for decreasing the intraluminal pressure by 20 cm H2 O and the vasodilator action was represented by a dose (D), μg, of the compound required for increasing the perfused-blood flow by 5 ml/min.

A further data set concerns β-adrenoceptor. Kind of data set: Relaxant action on guinea-pig isolated trachea in the presence of propranolol (β-adrenoceptor involvement). To be noted: histamine 10^-4 M; propranolol 2.5×10^-5 M; FIGS. 1-4.
Description: as §2
Histamine (10^-4 M in the bath medium) was applied to the guinea-pig isolated tracheal preparation to contract the muscles, and the effect of the above compounds to inhibit the contraction (%) was plotted along the ordinate on each of the points for concentration which were connected by a solid line into a curve. Then, the dose-response curve for the compound in the presence of propranolol (2.5×10^-5 M) was obtained and plotted in a dotted line.

The nature of data set [4]: Acute toxicity, intraperitoneal injection in mice. To be noted: mouse, in vivo, ip; intraperitoneal injection to mice; read-out: F: Approx. LD50 value. As to the method:
Another experiment was also conducted using mice as an index for the acute toxicity to the whole body.
Approx. LD50 value on intraperitoneal injection for mice was determined.

pEC50: −log10 of the molar value.

In the case of `CC(CN1CCCCC1)C(=O)c1ccc(S(=O)(=O)c2ccccc2)cc1` (centres unmarked) [Compound 42, 1-(4-phenylsulfonylphenyl)-3-piperidino-2-methylpropanone-1], in data set [1], the pEC50 was 4.70 and the “B/A: selectivity to tracheal smooth muscles” value (from here on “B/A: selectivity”) came out at 9. Further, the “B: dose required for 30 ml/min increase in the perfused-blood flow (vasodilator action)” value (shortened to “B: dose required for 30 ml/min increase”) in data set [2] is 175 µg.
As for `CC(C)(C)NCC(O)c1ccc(O)c(CO)c1` (centres unmarked) [salbutamol], in data set [3], the “D/C × 10: selectivity” value was 2, the “C: dose required for 20 cm H2O decrease in the tracheal intraluminal pressure (bronchodilator action)” value (“C: dose required for 20 cm H2O decrease” below) stood at 2 µg and the “D: dose required for 5 ml/min increase in the perfused-blood flow (vasodilator action)” value (shortened to “D: dose required for 5 ml/min increase”) is 0.4 µg.
For the compound `CC(CN1CCCCC1)C(=O)c1ccc([S+](C)[O-])cc1` (centres unmarked) [Compound 4, 1-(4-methylsulfinylphenyl)-3-piperidino-2-methylpropanone-1], in data set [1], the pEC50 was 3.52 and the “B/A: selectivity” value was found to be 3. For the same compound, the “B: dose required for 30 ml/min increase” value in data set [2] was determined as 800 µg.
The corresponding values for `CSc1ccc(C(=O)C(C)CN(C)C)cc1` (centres unmarked) [Compound 48, 1-(4-methylthiophenyl)-3-dimethylamino-2-methylpropanone-1] are 5.22, 17 and 100 µg.
On to `CCSc1ccc(C(=O)C(C)CN2CCCCC2)cc1` (centres unmarked) [Compound 29, 1-(4-ethylthiophenyl)-3-piperidino-2-methylpropanone-1], for which, in data set [1], the pEC50 was 5.70 and the “B/A: selectivity” value worked out at 90. Besides, the “B: dose required for 30 ml/min increase” value in data set [2] was 180 µg. Besides, in data set [3], the “D/C × 10: selectivity” value was 7, the “C: dose required for 20 cm H2O decrease” value came out at 109 µg and the “D: dose required for 5 ml/min increase” value came to 77 µg. For the same compound, the “difference between dose-response curves without and with propranolol (inhibition of histamine contraction)” value in the data set on β-adrenoceptor is given as “no substantial difference”.
In the case of `CC(CN1CCCCC1)C(=O)c1ccc(S(C)(=O)=O)cc1` (centres unmarked) [Compound 16, 1-(4-methylsulfonylphenyl)-3-piperidino-2-methylpropanone-1], in data set [1], the pEC50 is 4.22 and the “B/A: selectivity” value amounted to 12. Also, the “B: dose required for 30 ml/min increase” value in data set [2] was 750 µg. Also, the “difference between dose-response curves without and with propranolol (inhibition of histamine contraction)” value in the data set with β-adrenoceptor is given as “no substantial difference”.
For `CCSc1ccc(C(=O)C(C)CN2CCOCC2)cc1` (centres unmarked) [Compound 25, 1-(4-ethylthiophenyl)-3-morpholino-2-methylpropanone-1], in data set [1], the pEC50 was 4.00 and the “B/A: selectivity” value was 1. In addition, the “B: dose required for 30 ml/min increase” value in data set [2] is 100 µg. Also, in data set [4], the LD50 worked out at 200 mg/kg.
`CSc1ccc(C(=O)C(C)CN2CCCC2)cc1` (centres unmarked) [Compound 50]: in data set [1], the pEC50 was 5.22 and the “B/A: selectivity” value was 7. For the same compound, the “B: dose required for 30 ml/min increase” value in data set [2] was 43 µg.
As to `CSc1ccc(C(=O)C(C)CN2CCCCC2)cc1` (centres unmarked) [Compound 51, 1-(4-methylthiophenyl)-3-piperidino-2-methylpropanone-1], in data set [1], the pEC50 was 5.22 and the “B/A: selectivity” value is given as 40. The “B: dose required for 30 ml/min increase” value in data set [2] came out at 240 µg. Further, in data set [3], the “D/C × 10: selectivity” value is recorded as 8, the “C: dose required for 20 cm H2O decrease” value came to 62.5 µg and the “D: dose required for 5 ml/min increase” value was 50 µg. For the same compound, the “difference between dose-response curves without and with propranolol (inhibition of histamine contraction)” value in the data set with β-adrenoceptor is given as “no substantial difference”.
For `COc1cc(CC2NCCc3cc(O)c(O)cc32)cc(OC)c1OC` (centres unmarked) [trimetoquinol], in data set [3], the “D/C × 10: selectivity” value turned out to be 2.5, the “C: dose required for 20 cm H2O decrease” value was 0.2 µg and the “D: dose required for 5 ml/min increase” value came to 0.05 µg.
As to `CCSc1ccc(C(=O)C(C)CN(C)C)cc1` (centres unmarked) [Compound 54], in data set [1], the pEC50 was 4.22 and the “B/A: selectivity” value was determined as 6. Also, the “B: dose required for 30 ml/min increase” value in data set [2] is 350 µg. Also, in data set [4], the LD50 was 200 mg/kg.
In the case of `CC[S+]([O-])c1ccc(C(=O)C(C)CN2CCCCC2)cc1` (centres unmarked) [Compound 10], in data set [1], the pEC50 is 3.70 and the “B/A: selectivity” value is given as 4. Besides, in data set [2], the “B: dose required for 30 ml/min increase” value is 700 µg.
Turning to `CC(C)(C)NCC(O)c1cc(O)cc(O)c1` (centres unmarked) [terbutaline], in data set [3], the “D/C × 10: selectivity” value worked out at 4, the “C: dose required for 20 cm H2O decrease” value came to 0.5 µg and the “D: dose required for 5 ml/min increase” value came to 0.2 µg.
With `CCSc1ccc(C(=O)C(C)CN2CCCC2)cc1` (centres unmarked) [Compound 37], in data set [1], the pEC50 is 4.52 and the “B/A: selectivity” value came out at 6. Besides, the “B: dose required for 30 ml/min increase” value in data set [2] worked out at 175 µg. Besides, the LD50 in data set [4] turned out to be 200 mg/kg.
Turning to `CSc1ccc(C(=O)C(C)CN2CCN(C)CC2)cc1` (centres unmarked) [Compound 53], in data set [1], the pEC50 was 3.70 and the “B/A: selectivity” value is reported as 2. Moreover, the “B: dose required for 30 ml/min increase” value in data set [2] worked out at 430 µg.
Turning to `CCSc1ccc(C(=O)C(C)CN(CC)CC)cc1` (centres unmarked) [Compound 55], in data set [1], the pEC50 is 4.22 and the “B/A: selectivity” value is 5. Further, the “B: dose required for 30 ml/min increase” value in data set [2] worked out at 270 µg. Moreover, in data set [4], the LD50 was determined as 200 mg/kg.
As for `CCCCS(=O)(=O)c1ccc(C(=O)C(C)CN2CCCCC2)cc1` (centres unmarked) [Compound 36, 1-(4-butylsulfonylphenyl)-3-piperidino-2-methylpropanone-1], in data set [1], the pEC50 was 4.70 and the “B/A: selectivity” value is 18. In addition, the “B: dose required for 30 ml/min increase” value in data set [2] worked out at 360 µg. In data set [3], the “D/C × 10: selectivity” value came to 3, the “C: dose required for 20 cm H2O decrease” value is 333 µg and the “D: dose required for 5 ml/min increase” value turned out to be 100 µg.
In the case of `CCS(=O)(=O)c1ccc(C(=O)C(C)CN2CCCCC2)cc1` (centres unmarked) [Compound 22, 1-(4-ethylsulfonylphenyl)-3-piperidino-2-methylpropanone-1], in data set [1], the pEC50 is 4.22 and the “B/A: selectivity” value is listed as 9. Further, the “B: dose required for 30 ml/min increase” value in data set [2] came out at 580 µg.
For `CC(C)NCC(O)c1ccc(O)c(O)c1` (centres unmarked) [isoproterenol, reference compound], in data set [1], the pEC50 is 8.30. Further, the “B: dose required for 30 ml/min increase” value in data set [2] was determined as 0.0053 µg. Also, in data set [3], the “C: dose required for 20 cm H2O decrease” value was 0.1 µg and the “D: dose required for 5 ml/min increase” value came to 0.01 µg.
Consider `CCCC[S+]([O-])c1ccc(C(=O)C(C)CN2CCCCC2)cc1` (centres unmarked) [Compound 28, 1-(4-butylsulfinylphenyl)-3-piperidino-2-methylpropanone-1], for which, in data set [1], the pEC50 was 4.22 and the “B/A: selectivity” value stood at 8. Besides, in data set [2], the “B: dose required for 30 ml/min increase” value amounted to 460 µg.
